This is an account of results in patent US20070010671A1, “Novel quinazoline derivatives and methods of treatment related to the use thereof” (priority 2003, published 2007).

This test has as its target MCH receptor (Homo sapiens, UniProt Q99705). The test is described as follows: High throughput functional screening FLIPR/FDSS6000: inhibition of MCH-evoked intracellular Ca2+ changes. It counts as cell-based. The following applies: class by percent of control at 10^-7 M or IC50. The essentials: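 Cells expressing constitutively active MCH receptor, loaded with 4 μM Fluo4-AM for 1 h at 37 °C, were pretreated 3 min with compound, then challenged with MCH (50 nM for antagonist testing). MCH-evoked [Ca2+]i transients followed by FLIPR or FDSS (ex 488/em 530 nm) over 290 s.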

On to `CN(C)c1nc(N[C@H]2CC[C@@H](CNC(=S)Nc3ccc(Oc4ccc([N+](=O)[O-])cc4)cc3)CC2)nc2ccccc12` [compound 740], for which the class is on record as 3 (Class 3: The value of percent of control at 10^−7 M was more than 60% or the value of IC50 was more than 200 nM.).

For the compound `CN(C)c1nc(N[C@H]2CC[C@@H](CNC(=S)Nc3ccc(Sc4ccc([N+](=O)[O-])cc4)cc3)CC2)nc2ccccc12` [compound 741], the class is given as 3 (Class 3: The value of percent of control at 10^−7 M was more than 60% or the value of IC50 was more than 200 nM.).

Turning to `CN(C)c1nc(N[C@H]2CC[C@@H](CNC(=S)Nc3ccc(S(N)(=O)=O)cc3)CC2)nc2ccccc12` [compound 742], the class is on record as 3 (Class 3: The value of percent of control at 10^−7 M was more than 60% or the value of IC50 was more than 200 nM.).

In the case of `COc1ccc(NC(=S)NC[C@H]2CC[C@@H](Nc3nc(N(C)C)c4ccccc4n3)CC2)c(C)c1` [compound 743], the class is given as 2 (Class 2: The value of percent of control at 10^−7 M was from 40% to 60% or the value of IC50 was from 50 nM to 200 nM.).

As for `Cc1ccc(CCNC(=S)NC[C@H]2CC[C@@H](Nc3nc(N(C)C)c4ccccc4n3)CC2)cc1` [compound 744], the class was 3 (Class 3: The value of percent of control at 10^−7 M was more than 60% or the value of IC50 was more than 200 nM.).

As to `CN(C)c1nc(N[C@H]2CC[C@@H](CNC(=S)Nc3ccc(Oc4ccccc4)cc3)CC2)nc2ccccc12` [compound 745], the class is on record as 3 (Class 3: The value of percent of control at 10^−7 M was more than 60% or the value of IC50 was more than 200 nM.).

With `COc1cc(OC)c(NC(=S)NC[C@H]2CC[C@@H](Nc3nc(N(C)C)c4ccccc4n3)CC2)cc1Cl` [compound 746], the class is reported as 3 (Class 3: The value of percent of control at 10^−7 M was more than 60% or the value of IC50 was more than 200 nM.).

With `CN(C)c1nc(N[C@H]2CC[C@@H](CNC(=S)Nc3ccc4c(c3)CCC4)CC2)nc2ccccc12` [compound 747], the class is 3 (Class 3: The value of percent of control at 10^−7 M was more than 60% or the value of IC50 was more than 200 nM.).

Consider `CN(C)c1nc(N[C@H]2CC[C@@H](CNC(=S)NC3CCCCCC3)CC2)nc2ccccc12` [compound 748], for which the class is reported as 3 (Class 3: The value of percent of control at 10^−7 M was more than 60% or the value of IC50 was more than 200 nM.).

On to `C[C@@H](NC(=S)NC[C@H]1CC[C@@H](Nc2nc(N(C)C)c3ccccc3n2)CC1)c1ccccc1` [compound 749], for which the class is listed as 3 (Class 3: The value of percent of control at 10^−7 M was more than 60% or the value of IC50 was more than 200 nM.).

On to `CCCCOC(=O)c1ccccc1NC(=O)NC[C@H]1CC[C@@H](Nc2nc(N(C)C)c3ccccc3n2)CC1` [compound 750], for which the class is 3 (Class 3: The value of percent of control at 10^−7 M was more than 60% or the value of IC50 was more than 200 nM.).

In the case of `COC(=O)c1cc(NC(=O)NC[C@H]2CC[C@@H](Nc3nc(N(C)C)c4ccccc4n3)CC2)cc(C(=O)OC)c1` [compound 751], the class is on record as 3 (Class 3: The value of percent of control at 10^−7 M was more than 60% or the value of IC50 was more than 200 nM.).

On to `CN(C)c1nc(N[C@H]2CC[C@@H](CNC(=O)Nc3ccc(OC(F)(F)F)cc3)CC2)nc2ccccc12` [compound 752], for which the class is given as 3 (Class 3: The value of percent of control at 10^−7 M was more than 60% or the value of IC50 was more than 200 nM.).

`Cc1cc(Br)cc(C)c1NC(=O)NC[C@H]1CC[C@@H](Nc2nc(N(C)C)c3ccccc3n2)CC1` [compound 753, N-(4-bromo-2,6-dimethylphenyl)-N′-[(cis-4-{[4-(dimethylamino)quinazolin-2-yl]amino}cyclohexyl)methyl]urea]: the class is on record as 1 (Class 1: The value of percent of control at 10^−7 M was less than 40% or the value of IC50 was less than 50 nM.).

`Cc1cc(Br)ccc1NC(=O)NC[C@H]1CC[C@@H](Nc2nc(N(C)C)c3ccccc3n2)CC1` [compound 754]: the class is listed as 2 (Class 2: The value of percent of control at 10^−7 M was from 40% to 60% or the value of IC50 was from 50 nM to 200 nM.).
